As usually defined, the IC50 is the midpoint of a concentration-inhibition curve. A word on the inhibition: it is the change of the read-out against control, counted positive when it falls. Higher therefore signals a response far below the control.

The values below come from patent publication US20190031665A1, “DERIVATIVES OF PYRROLOIMIDAZOLE OR ANALOGUES THEREOF WHICH ARE USEFUL FOR THE TREATMENT OF INTER ALIA CANCER” (EMCURE PHARMACEUTICALS LIMITED, priority 2016, published 2019).

In assay [1] the target is T1, human indoleamine 2,3-dioxygenase 1 (hIDO1) (Homo sapiens, UniProt P14902).
T1 construct: His tag (N); purchased BPS Bioscience, San Diego, Calif., USA; host or cells: E. coli
As to the kind of experiment: In-vitro human indoleamine 2,3-dioxygenase 1 (IDO1) enzyme assay. It is filed as biochemical. To be noted: for IC50: hIDO1 enzyme; for inhibition at 1 µM: hIDO1 enzyme at 1.0 μM concentration; for inhibition at 10 µM: hIDO1 enzyme at 10.0 μM concentration. Summed up:
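His-tagged hIDO1 (E. coli, 50 ng) incubated with 80 μM tryptophan, 10 mM ascorbate, 10 μM methylene blue, catalase and 0.01% Tween-20 in 50 mM sodium phosphate pH 6.5, 60 min, 37 °C. Piperidine converts N-formylkynurenine to fluorescent NFK-PIP (ex 400/em 500 nm); IC50 by nonlinear regression.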

Assay [2] has as its target T2, human tryptophan 2,3-dioxygenase (hTDO) (Homo sapiens, UniProt P48775).
T2 construct: His tag (N); purchased BPS Bioscience, San Diego, Calif., USA; host or cells: E. coli
The assay can be described thus: In-vitro human tryptophan 2,3-dioxygenase (TDO) enzyme assay. It is filed as biochemical. To be noted: for inhibition at 1 µM: hTDO enzyme at 1.0 μM concentration; for inhibition at 10 µM: hTDO enzyme at 10.0 μM concentration. In a few lines: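 N-His-tagged hTDO expressed in E. coli (125 ng) incubated with 200 μM L-tryptophan, 100 mM sodium phosphate pH 7.0, 0.01% Tween-20, 100 μM ascorbate, 60 min at 37 °C. Product converted with 200 mM piperidine (65 °C, 20 min) to NFK-PIP, fluorescence 400/500 nm; IC50 by nonlinear regression.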

T2 sequence (P48775 whole entry): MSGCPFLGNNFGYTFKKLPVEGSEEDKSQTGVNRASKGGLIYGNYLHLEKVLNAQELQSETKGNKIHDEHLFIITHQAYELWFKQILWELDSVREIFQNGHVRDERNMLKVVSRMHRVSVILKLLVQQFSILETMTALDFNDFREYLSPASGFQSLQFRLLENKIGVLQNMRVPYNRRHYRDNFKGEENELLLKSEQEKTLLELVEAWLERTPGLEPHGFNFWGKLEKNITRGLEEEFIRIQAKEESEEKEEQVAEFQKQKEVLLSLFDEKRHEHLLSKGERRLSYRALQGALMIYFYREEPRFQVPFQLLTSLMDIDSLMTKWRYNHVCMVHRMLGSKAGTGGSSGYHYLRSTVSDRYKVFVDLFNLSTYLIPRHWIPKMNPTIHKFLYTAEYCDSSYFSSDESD
T1 sequence (P14902 whole entry): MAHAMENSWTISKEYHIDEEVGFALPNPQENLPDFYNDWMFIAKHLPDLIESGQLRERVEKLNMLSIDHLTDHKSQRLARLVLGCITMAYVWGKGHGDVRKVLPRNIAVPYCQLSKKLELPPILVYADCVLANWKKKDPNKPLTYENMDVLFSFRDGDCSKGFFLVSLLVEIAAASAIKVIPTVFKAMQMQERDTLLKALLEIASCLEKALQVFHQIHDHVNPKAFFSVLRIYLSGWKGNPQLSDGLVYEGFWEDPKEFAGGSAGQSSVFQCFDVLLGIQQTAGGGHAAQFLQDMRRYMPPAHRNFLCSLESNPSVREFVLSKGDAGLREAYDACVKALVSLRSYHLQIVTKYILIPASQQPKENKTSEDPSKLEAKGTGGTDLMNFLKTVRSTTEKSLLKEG

For `CC1=C(c2ccccc2)C(CC(O)C2CCN(C(=O)c3ccccn3)CC2)n2cncc21` (stereo not shown) [Example 152], in assay [1], the IC50 was above 500 nM, the inhibition at 1 µM is at most 50% and the inhibition at 10 µM was at least 50%. In assay [2], this compound showed an inhibition at 1 µM of at most 50%.

In assay [1], `CC1=C(c2ccccc2)C(CC(O)C2CCN(C(=O)c3cccnc3)CC2)n2cncc21` (stereo not shown) [Example 157] displayed an IC50 above 500 nM, an inhibition at 1 µM of at least 50% and an inhibition at 10 µM of at least 50%. This compound also returned an inhibition at 1 µM in assay [2] of at most 50%.

Turning to `CC1=C(c2ccccc2)C(CC(O)C2CCN(C(=O)Nc3ccccc3)CC2)n2cncc21` (stereo not shown) [Example 158, 4-[1-Hydroxy-2-(7-methyl-6-phenyl-5H-pyrrolo[1,2-c]imidazol-5-yl)-ethyl]-piperidine-1-carboxylic acid phenyl amide], in assay [1], the IC50 was below 500 nM, the inhibition at 1 µM was at least 50% and the inhibition at 10 µM was at least 50%. The inhibition at 1 µM in assay [2] is at least 50%.

In assay [1], `CC1=C(c2ccccc2)C(CC(=O)C2CN(C(=O)c3ccccc3)C2)n2cncc21` (stereo not shown) [Example 159, 1-(1-Benzoyl-azetidin-3-yl)-2-(7-methyl-6-phenyl-5H-pyrrolo[1,2-c]imidazol-5-yl)-ethanone] gave an inhibition at 1 µM of at most 50% and an inhibition at 10 µM of at least 50%. This compound also returned an inhibition at 1 µM in assay [2] of at most 50%.

For `CC1=C(c2ccccc2)C(CC(O)C2CCN(C(=O)c3ccncc3)CC2)n2cncc21` (stereo not shown) [Example 162], the inhibition at 1 µM in assay [1] and in assay [2] was at most 50% throughout. The inhibition at 10 µM in assay [1] is at least 50%.

On to `CC1=C(c2ccccc2)C(CC(O)C2CCN(S(=O)(=O)C3CCCCC3)CC2)n2cncc21` (stereo not shown) [Example 163, 1-(1-Cyclohexanesulfonyl-piperidin-4-yl)-2-(7-methyl-6-phenyl-5H-pyrrolo[1,2-c]imidazol-5-yl)-ethanol], for which, in assay [1], the IC50 is below 500 nM, the inhibition at 1 µM is at least 50% and the inhibition at 10 µM is at least 50%. Besides, in assay [2], the inhibition at 1 µM is at least 50%.

In assay [1], `CC1=C(c2ccccc2)C(CC(O)C2CCN(C(=O)c3ccnc(C)c3)CC2)n2cncc21` (stereo not shown) [Example 164, {4-[1-Hydroxy-2-(7-methyl-6-phenyl-5H-pyrrolo[1,2-c]imidazol-5-yl)-ethyl]-piperidin-1-yl}-(2-methyl-pyridin-4-yl)-methanone] displayed an inhibition at 1 µM of at most 50% and an inhibition at 10 µM of at least 50%. The compound also came in with an inhibition at 1 µM in assay [2] of at most 50%.

As for `CC1=C(c2ccccc2)C(CC(O)C2CCN(S(C)(=O)=O)CC2)n2cncc21` (stereo not shown) [Example 165], the inhibition at 1 µM in assay [1] and in assay [2] was at most 50% throughout. This compound gave an inhibition at 10 µM in assay [1] of at least 50%.

In assay [1], `CC1=C(c2ccccc2)C(CC(O)C2CCN(C(=O)Nc3ccccn3)CC2)n2cncc21` (stereo not shown) [Example 167] had an IC50 below 500 nM, an inhibition at 1 µM of at least 50% and an inhibition at 10 µM of at least 50%. This compound also registered an inhibition at 1 µM in assay [2] of at most 50%.

In assay [1], `CC1=C(c2ccccc2)C(CC(F)C2CCCCC2)n2cncc21` (stereo not shown) [Example 168, 5-(2-Cyclohexyl-2-fluoro-ethyl)-7-methyl-6-phenyl-5H-pyrrolo[1,2-c]imidazole] registered an IC50 above 500 nM, an inhibition at 1 µM of at least 50% and an inhibition at 10 µM of at least 50%. In assay [2], this compound displayed an inhibition at 1 µM of at least 50% and an inhibition at 10 µM of at least 50%.

Take `O=C(CC1C(c2ccccc2)=Cc2cncn21)c1ccccc1` (stereo not shown) [Example 169, 1-Phenyl-2-(6-phenyl-5H-pyrrolo[1,2-c]imidazol-5-yl)-ethanone]: the inhibition at 1 µM in assay [1] is at most 50%. For the same compound, the inhibition at 10 µM in assay [1] and in assay [2] was at least 50% each time.

In the case of `CCCCC(O)CC1C(c2ccccc2)=C(C)c2cncn21` (stereo not shown) [Example 170, 1-(7-Methyl-6-phenyl-5H-pyrrolo[1,2-c]imidazole-5-yl)-hexan-2-ol], in assay [1], the IC50 is above 500 nM, the inhibition at 1 µM was at most 50% and the inhibition at 10 µM is at least 50%. In assay [2], the inhibition at 1 µM is at least 50% and the inhibition at 10 µM was at least 50%.

`CCOC(=O)CCC(=O)CC1C(c2ccccc2)=C(C)c2cncn21` (stereo not shown) [Example 173, Ethyl 5-(7-methyl-6-phenyl-5H-pyrrolo[1,2-c]imidazol-5-yl)-4-oxopentanoate]: in assay [1], the inhibition at 1 µM was at most 50% and the inhibition at 10 µM was at least 50%. The inhibition at 1 µM in assay [2] was at most 50%.

As for `CC1=C(c2ccccc2)C(CC(O)CCC(=O)N2CCC(O)CC2)n2cncc21` (stereo not shown) [Example 174, 4-Hydroxy-1-(4-hydroxypiperidin-1-yl)-5-(7-methyl-6-phenyl-5H-pyrrolo[1,2-c]imidazol-5-yl)pentan-1-one], in assay [1], the inhibition at 1 µM was at most 50% and the inhibition at 10 µM was at least 50%. The compound also returned an inhibition at 1 µM in assay [2] of at most 50%.

In assay [1], `CC1=C(c2ccccc2)C(CC(=O)c2ccc(NC(=O)Cc3ccccc3F)cc2)n2cncc21` (stereo not shown) [Example 176, 2-(2-fluorophenyl)-N-(4-(2-(7-methyl-6-phenyl-5H-pyrrolo[1,2-c]imidazol-5-yl)acetyl)phenyl)acetamide] gave an IC50 below 500 nM, an inhibition at 1 µM of at least 50% and an inhibition at 10 µM of at least 50%. In assay [2], this compound gave an inhibition at 1 µM of at least 50%.

For `CC1=C(c2ccccc2)C(CC(=O)C2CCC(=NO)CC2)n2cncc21` (stereo not shown) [Example 177, 4-[2-(7-Methyl-6-phenyl-5H-pyrrolo[1,2-c]imidazol-5-yl)-acetyl]-cyclohexanone oxime], in assay [1], the inhibition at 1 µM was at most 50% and the inhibition at 10 µM is at least 50%. This compound also gave an inhibition at 1 µM in assay [2] of at least 50%.

For the compound `CC1=C(c2ccccc2)C(CC(O)C2CCC(=NO)CC2)n2cncc21` (stereo not shown) [Example 178, 4-[1-Hydroxy-2-(7-methyl-6-phenyl-5H-pyrrolo[1,2-c]imidazol-5-yl)-ethyl]-cyclohexanone oxime], in assay [1], the IC50 is below 500 nM, the inhibition at 1 µM is at least 50% and the inhibition at 10 µM is at least 50%. In assay [2], this compound showed an inhibition at 1 µM of at most 50%.

As for `CC1=C(c2ccccc2)C(CC(O)C2CCN(C(=O)NC3CCCCC3)CC2)n2cncc21` (stereo not shown) [Example 179], in assay [1], the IC50 is below 500 nM, the inhibition at 1 µM is at least 50% and the inhibition at 10 µM is at least 50%. Moreover, the inhibition at 1 µM in assay [2] was at most 50%.

`CC1=C(c2ccccc2)C(CC(O)C2CCN(C(=O)Cc3ccccc3)CC2)n2cncc21` (stereo not shown) [Example 180]: in assay [1], the IC50 is below 500 nM, the inhibition at 1 µM was at least 50% and the inhibition at 10 µM is at least 50%. The same compound displayed an inhibition at 1 µM in assay [2] of at least 50%.

In assay [1], `CC1=C(c2ccccc2)C(CC(O)C2CCN(C(=O)Nc3cccc(Cl)c3)CC2)n2cncc21` (stereo not shown) [Example 181] gave an IC50 below 500 nM, an inhibition at 1 µM of at least 50% and an inhibition at 10 µM of at least 50%. Also, the inhibition at 1 µM in assay [2] is at most 50%.

In the case of `CC1=C(c2ccccc2)C(CC(O)C2CCN(C(=O)Nc3ccc(F)c(Cl)c3)CC2)n2cncc21` (stereo not shown) [Example 182], in assay [1], the IC50 is below 500 nM, the inhibition at 1 µM was at least 50% and the inhibition at 10 µM is at least 50%. In assay [2], this compound displayed an inhibition at 1 µM of at most 50%.

In assay [1], `CC1=C(c2ccccc2)C(CC(O)C2CCN(C(=O)Nc3cccc(C)n3)CC2)n2cncc21` (stereo not shown) [Example 183] had an IC50 below 500 nM, an inhibition at 1 µM of at least 50% and an inhibition at 10 µM of at least 50%. This compound also returned an inhibition at 1 µM in assay [2] of at most 50%.

For the compound `CC1=C(c2ccccc2)C(CC(O)C2CCC(F)(F)CC2)n2cncc21` (stereo not shown) [Example 184], in assay [1], the IC50 was below 500 nM, the inhibition at 1 µM is at least 50% and the inhibition at 10 µM was at least 50%. Besides, the inhibition at 1 µM in assay [2] is at least 50%.

Turning to `CC1=C(c2ccccc2)C(CC(O)C2CCC(c3ccccc3)CC2)n2cncc21` (stereo not shown) [Example 186], in assay [1], the IC50 was below 500 nM, the inhibition at 1 µM was at least 50% and the inhibition at 10 µM was at least 50%. The compound also had an inhibition at 1 µM in assay [2] of at most 50%.

In assay [1], `CC1=C(c2ccccc2)C(CC(O)C2CCN(C(=O)C(C)C)CC2)n2cncc21` (stereo not shown) [Example 187] had a half-maximal inhibitory concentration (IC50) above 500 nM, an inhibition at 1 µM of at least 50% and an inhibition at 10 µM of at least 50%. This compound had an inhibition at 1 µM in assay [2] of at most 50%.

In assay [1], `CC1=C(c2ccccc2)C(CC(O)C2CCN(c3ccccn3)CC2)n2cncc21` (stereo not shown) [Example 188, 2-(7-methyl-6-phenyl-5H-pyrrolo[1,2-c]imidazol-5-yl)-1-(1-(pyridin-2-yl)piperidin-4-yl)ethan-1-ol] came in with an inhibition at 1 µM of at most 50% and an inhibition at 10 µM of at least 50%. Further, in assay [2], the inhibition at 1 µM is at most 50%.
